From EP2198878A1, “Polypeptide bombesin antagonists” (University Of Miami, priority 2008, dated 2010) come the findings set out here.

Peptide text beside a SMILES is read from it. * marks the point of attachment. Leuψ(CH2N)ThzNH2 = CC(C)C[C@@H](CN1CSC[C@H]1C(N)=O)N*; Hydrocinnamoyl = O=C(CCc1ccccc1)*

The subject of this data set is Human SK-Hep-1 cancers. Description: SK-Hep-1 human hepatocellular carcinoma xenograft in nude mice. It counts as in vivo, mouse. The settings on record: at therapeutic doses. The procedure: Human SK-Hep-1 cancers were transplanted sc. into both flank areas of female nude mice. The treatment started 47 days after transplantation as follows: Group 1: Control; Group 2: Peptide 14, 20 µg/day;. There were 8 animals in each group. The substances were dissolved in 0.1% dimethyl sulfoxide (DMSO) and diluted with 10% propylene glycol in water. Amounts of 0.1 ml of the solutions were injected once daily sc. The controls received vehicle only. Tumors and body weights were measured weekly and tumor volume was calculated. The experiment was terminated on day 135.

Turning to `CC(C)C[C@@H](CN1CSC[C@H]1C(N)=O)NC(=O)[C@H](Cc1c[nH]cn1)NC(=O)CNC(=O)[C@@H](NC(=O)[C@H](C)NC(=O)[C@H](Cc1c[nH]c2ccccc12)NC(=O)[C@H](CCC(N)=O)NC(=O)CCc1ccccc1)C(C)C` [Peptide 14, Hca-Gln-Trp-Ala-Val-Gly-His-Leu-ψ-Tac-NH2] (Hydrocinnamoyl-QWAVGH-{Leuψ(CH2N)ThzNH2}), the toxic effects result is “no toxic effects”.
